Substitutions are numbered along the chain they refer to. Where “and” joins values, the source holds several entries; their conditions need not be identical. Equal entries are not always repeated.
What was measured:
[1] = biological target: T1, mCST∆C (Mus musculus, UniProt Q61420); experiment: Scintillation proximity binding assay (SPA), displacement of 30 nM [3H]CMP; conditions: full SPA titration against 30 nM [3H]CMP
T1 construct: modifying the full-length construct using site-directed mutagenesis to remove the last 15 residues (322-336); made in house; host or cells: Pichia pastoris
T1 sequence (Q61420 1-321): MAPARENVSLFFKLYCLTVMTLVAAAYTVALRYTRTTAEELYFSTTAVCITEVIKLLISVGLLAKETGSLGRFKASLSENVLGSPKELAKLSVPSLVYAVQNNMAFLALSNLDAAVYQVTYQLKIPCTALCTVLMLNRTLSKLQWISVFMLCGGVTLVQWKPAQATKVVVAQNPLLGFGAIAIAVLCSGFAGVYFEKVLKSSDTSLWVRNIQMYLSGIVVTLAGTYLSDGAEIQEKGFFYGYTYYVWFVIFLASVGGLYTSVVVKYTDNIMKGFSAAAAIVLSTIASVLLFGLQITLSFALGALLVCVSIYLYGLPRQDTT
Description: Figure 1. Functional properties of mCST. (A) Purified, detergent-solubilized mCST was bound to SPA beads and the indicated compound was titrated against 30 nM [^3H]CMP to determine its affinity. Solid symbols denote titrations done with mCST and the open symbols are for mCST∆C. (B) Time course of 30 µM CMP-Sia uptake for purified mCST reconstituted into lipid vesicles with (black) or without (red) 300 µM CMP inside the vesicles. […] (C) The initial velocity of CMP-Sia uptake for either mCST (solid circles) or mCST∆C (open circles) reconstituted into CMP-filled vesicles is plotted as a function of substrate concentration to determine the Km and Vmax for transport. In all panels, the symbols show the mean ± standard error of the mean (SEM) for n = 2, except for the CMP titrations in (A), and the titration for mCST in (C) where n = 4. Figure 1—figure supplement 1. Description of SLC35 proteins. (A) Diagram of the nucleotide-sugar transporter (NST) transport cycle. Nucleotide sugars are first synthesized in the cytoplasm (or nucleus for CMP-Sia). They are then transported into the Golgi lumen by NSTs (blue box). A large family of glycosyltransferase enzymes transfers the sugar to a glycan acceptor, leaving behind the nucleotide monophosphate (NMP), which is then transported back to the cytoplasm by the NST. (B) A list of proteins in the SLC35 family with a known function and the associated nucleotide sugar(s) that they transport. SLC35B2 and SLC35B3 are listed for completeness even though they transport PAPS, the substrate used in sulfonation reactions inside the Golgi. In mammals, mannose (Man) is only present in the oligosaccharide precursor that is synthesized in the cytoplasm and then transported across the ER membrane, by a family of transporters distinct from NSTs, before being added to nascent polypeptides to form the base for N-linked glycans. […] (C) The structural formulas of the nucleotide phosphate (left) and sugar (right) moieties of nucleotide sugars are shown. The ‘‘~” symbol indicates the bond that links the two moieties. […]

[2] = test system: CST; conditions: cited from earlier work
[3] = test system: UDP-GlcNAc transporter; parameters: method as in Waldman and Rudnick, 1990; conditions: monoanionic UMP compared to dianionic UMP; ref Waldman and Rudnick, 1990; cited from earlier work
[4] = biological target: T2, mCST (W247L) (Mus musculus, UniProt Q61420, W247L); experiment: Intrinsic tryptophan fluorescence quenching assay
T2 sequence (Q61420 1-336 W247L): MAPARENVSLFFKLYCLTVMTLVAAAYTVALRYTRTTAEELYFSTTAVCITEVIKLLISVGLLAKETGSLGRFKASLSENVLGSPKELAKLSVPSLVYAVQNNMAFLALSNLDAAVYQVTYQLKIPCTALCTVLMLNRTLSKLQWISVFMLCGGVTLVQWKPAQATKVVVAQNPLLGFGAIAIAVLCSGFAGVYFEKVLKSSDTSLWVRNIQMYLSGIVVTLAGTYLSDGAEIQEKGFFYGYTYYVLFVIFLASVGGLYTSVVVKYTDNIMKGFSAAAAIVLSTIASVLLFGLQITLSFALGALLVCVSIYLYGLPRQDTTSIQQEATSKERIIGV

[5] = biological target: T3, mCST (Mus musculus, UniProt Q61420); experiment: Scintillation proximity binding assay (SPA), displacement of 30 nM [3H]CMP; parameters: Full-length mCST cDNA was synthesized (Bio Basic) and subcloned into the Pichia pastoris expression vector pPICZ; made in house; host or cells: Pichia pastoris
T3 sequence (Q61420 1-336): T2 sequence (Q61420 1-336 W247L) with L247W
Description: Figure 1. Functional properties of mCST. (A) Purified, detergent-solubilized mCST was bound to SPA beads and the indicated compound was titrated against 30 nM [^3H]CMP to determine its affinity. Solid symbols denote titrations done with mCST and the open symbols are for mCST∆C. (B) Time course of 30 µM CMP-Sia uptake for purified mCST reconstituted into lipid vesicles with (black) or without (red) 300 µM CMP inside the vesicles. […] (C) The initial velocity of CMP-Sia uptake for either mCST (solid circles) or mCST∆C (open circles) reconstituted into CMP-filled vesicles is plotted as a function of substrate concentration to determine the Km and Vmax for transport. In all panels, the symbols show the mean ± standard error of the mean (SEM) for n = 2, except for the CMP titrations in (A), and the titration for mCST in (C) where n = 4. Figure 1—figure supplement 1. Description of SLC35 proteins. (A) Diagram of the nucleotide-sugar transporter (NST) transport cycle. Nucleotide sugars are first synthesized in the cytoplasm (or nucleus for CMP-Sia). They are then transported into the Golgi lumen by NSTs (blue box). A large family of glycosyltransferase enzymes transfers the sugar to a glycan acceptor, leaving behind the nucleotide monophosphate (NMP), which is then transported back to the cytoplasm by the NST. (B) A list of proteins in the SLC35 family with a known function and the associated nucleotide sugar(s) that they transport. SLC35B2 and SLC35B3 are listed for completeness even though they transport PAPS, the substrate used in sulfonation reactions inside the Golgi. In mammals, mannose (Man) is only present in the oligosaccharide precursor that is synthesized in the cytoplasm and then transported across the ER membrane, by a family of transporters distinct from NSTs, before being added to nascent polypeptides to form the base for N-linked glycans. […] (C) The structural formulas of the nucleotide phosphate (left) and sugar (right) moieties of nucleotide sugars are shown. The ‘‘~” symbol indicates the bond that links the two moieties. In mammals, two types of sialic acid may be transported into the Golgi: N-acetylneuraminic acid (Neu5Ac) or N-glycolylneuraminic acid (Neu5Gc). The ring atoms for the nucleobases and Neu5Ac and Gal are labeled. [drawing 1] Figure 1—figure supplement 2. Sequence alignment of mCST with other SLC35 and DMT proteins. The two letter prefix for each sequence name indicates the species as follows: mm: Mus musculus; hs: Homo sapiens; sc: Saccharomyces cerevisiae; sn: Starkeya novella; gs: Galdieria sulphuraria. […] The labeled yellow bars under the sequences indicate the extent of each TM. The interfacial alpha helix (IH) connecting TMs 2 and 3 is also indicated. [drawing 2] Figure 1—figure supplement 3.

[6] = biological target: T3, mCST; experiment: Intrinsic tryptophan fluorescence quenching assay
[7] = biological target: T4, mCST (W145L) (Mus musculus, UniProt Q61420, W145L); experiment: Intrinsic tryptophan fluorescence quenching assay
T4 sequence (Q61420 1-336 W145L): T2 sequence (Q61420 1-336 W247L) with W145L, L247W

[8] = biological target: T5, mCST (W160L) (Mus musculus, UniProt Q61420, W160L); experiment: SPA two-point CMP binding
T5 sequence (Q61420 1-336 W160L): T2 sequence (Q61420 1-336 W247L) with W160L, L247W

[9] = biological target: T1, mCST∆C; experiment: Intrinsic tryptophan fluorescence quenching assay; type: binding; conditions: fit of tryptophan fluorescence quenching, read-out: Kd (Trp-FL)
[10] = biological target: T6, mCST (W207F) (Mus musculus, UniProt Q61420, W207F); experiment: SPA two-point CMP binding
T6 sequence (Q61420 1-336 W207F): T2 sequence (Q61420 1-336 W247L) with W207F, L247W

[11] = biological target: T4, mCST (W145L); experiment: SPA two-point CMP binding
[12] = no reference given; cited from earlier work
[13] = biological target: T2, mCST (W247L); experiment: SPA two-point CMP binding
[14] = biological target: T7, mCST (W207L) (Mus musculus, UniProt Q61420, W207L); experiment: SPA two-point CMP binding
T7 sequence (Q61420 1-336 W207L): T2 sequence (Q61420 1-336 W247L) with W207L, L247W

[15] = HPLC analysis of CMP-Sia hydrolysis in aqueous buffer; type: physicochemical; conditions: AnP-treated CMP-Sia, AnP removed, pH 7.5 buffer, room temperature
[16] = biological target: T5, mCST (W160L); experiment: Intrinsic tryptophan fluorescence quenching assay
[17] = test system: mCST Trp207 mutants; experiment: Intrinsic tryptophan fluorescence quenching assay; conditions: W207L and W207F mutants

In the case of `O=c1ccn([C@@H]2O[C@H](COP(=O)(O)O)[C@@H](O)[C@H]2O)c(=O)[nH]1` [UMP, Uridine 5′-monophosphate], the Kd [1] is given as 1620 ± 1120 µM, the “Fold higher Ki for inhibiting CMP-Sia transport (versus CMP)” value ([2]; ref Chiaramonte et al., 2001) is given as 20 fold and the “Substrate quality for UDP-GlcNAc transporter (in words)” value [3] is given as “poor substrate”.

With `Nc1ccn([C@@H]2O[C@H](COP(=O)(O)O)[C@@H](O)[C@H]2O)c(=O)n1` [CMP, Cytidine 5'-monophosphate] the Kd [4] was 7.4 ± 2.6 µM, the “Fold higher affinity of CMP towards mCST than CMP-Sia” value ([5]; CMP versus CMP-Sia, Figure 1A) was ~ 100 fold and the Kd ([5]; crude estimation from two-point SPA data (30 nM [3H]CMP ± 5 µM unlabeled CMP), mCST, read-out: Kd (SPA 2-point)) was 5.5 ± 1.6 µM. For the same compound, the Kd ([5]; full SPA titration against 30 nM [3H]CMP, purified detergent-solubilized mCST, read-out: Kd (SPA titration)) was 6.3 ± 1.2 µM, the Kd [6] was 2.9 ± 1.1 µM and the “Quenching of intrinsic tryptophan fluorescence on CMP binding (in words)” value ([6]; wild-type mCST) was “significantly quenched”. The Kd [7] was 3.3 ± 1 µM, the Kd [8] was 1.6 ± 0.4 µM and the Kd [9] was 11.1 ± 2.9 µM. The Kd [10] was 3.8 ± 1.5 µM, the Kd [1] was 1.8 ± 0.4 µM and the Kd [11] was 0.8 ± 0.3 µM. The “Highest pKa of the phosphate group” value [12] was 6.3, the Kd [13] was 2.4 ± 1.5 µM and the Kd [14] was 1.5 ± 0.4 µM. For the same compound, the “Rate of CMP generation from CMP-Sia hydrolysis” value [15] was 0.0051 ± 0.00014 %/min and 0.0051 %/min, the Kd [16] was 11.9 ± 2.4 µM and the “Quenching of intrinsic tryptophan fluorescence by CMP (in words)” value [17] was “lack of any quenching”.

`Nc1nc2c(ncn2[C@@H]2O[C@H](COP(=O)(O)O)[C@@H](O)[C@H]2O)c(=O)[nH]1` [GMP, Guanosine 5′-monophosphate] showed a Kd [1] of 5380 ± 1150 µM.

In the case of `CC(=O)N[C@H]1[C@H]([C@H](O)[C@H](O)CO)OC(O)(C(=O)O)C[C@@H]1O` (stereo partly drawn) [Sia, sialic acid], the “Binding to mCST (in words)” value ([5]; SPA titration, Figure 1A) is listed as “does not bind mCST” and the “Competitive inhibition of CMP-Sia transport (in words)” value ([2]; ref Carey et al., 1980, Perez and Hirschberg, 1987) is listed as “does not competitively inhibit CMP-Sia transport”.

From paper PMC6508934, “Structural basis for mammalian nucleotide sugar transport” (eLife, 2019)
